Test results from US20240058453A1 (priority 2022, published 2024).

Tested on: bacteria
Format: cell-based

## NC[C@H]1O[C@H](O[C@H]2[C@H](O)[C@@H](O[C@H]3O[C@H](CO)[C@@H](O)[C@H](N)[C@H]3O)[C@H](N)C[C@@H]2N)[C@H](N)C[C@@H]1O [tobramycin]
  bacteria killing activity: comparable activity
